Consider 2 molecules from patent US8017589B2, “Avermectin B1 and avermectin B1 monosaccharide derivatives having an alkoxymethyl substituent in the 4″-or 4′-position” (Syngenta Crop Protection LLC, priority 2002, dated 2011).

SMILES strings stand for the structures.

Common to all, as to assay type: in vivo
The subject of one assay is Plutella xylostella. Nature of the assay: Action against Plutella xylostella caterpillars (spray on young cabbage plants). Conditions: 72 h, 12.5 ppm spray mixture, 10 caterpillars in the first stage, 3 days later, read-out: percentage reduction in population and percentage reduction in feeding damage (% activity). Here is the method:
After the spray-coating has dried, the cabbage plants are populated with 10 caterpillars of Plutella xylostella in the first stage and placed in a plastics container. Evaluation is made 3 days later. The percentage reduction in population and the percentage reduction in feeding damage (% activity) are determined by comparing the number of dead caterpillars and the feeding damage on the treated plants with that on the untreated plants.

In another assay the test system is Spodoptera littoralis. Nature of the assay: Action against Spodoptera littoralis (foliar spray on young soybean plants). Conditions: 72 h, 12.5 ppm spray mixture, 10 caterpillars in the first stage, 3 days later, read-out: percentage reduction in population and percentage reduction in feeding damage (% activity). Here is the method: 3 days later, the percentage reduction in population and the percentage reduction in feeding damage (% activity) are determined by comparing the number of dead caterpillars and the feeding damage on the treated plants with that on untreated plants.

A further assay relates to Tetranychus urticae. Nature of the assay: Action against Tetranychus urticae (spray on young bean plants). The settings on record: 144 h, 12.5 ppm spray mixture, mixed population, 6 days at 25° C., read-out: percentage reduction in population (% activity). As to the method:
The plants are incubated for 6 days at 25° C. and subsequently evaluated. The percentage reduction in population (% activity) is determined by comparing the number of dead eggs, larvae and adults on the treated plants with that on untreated plants.

As for `CCC(C)[C@H]1O[C@]2(C=C[C@@H]1C)C[C@@H]1C[C@@H](C/C=C(\C)[C@@H](OC3C[C@H](OC)[C@@H](OC4C[C@H](OC)[C@H](OCOCCOC)[C@H](C)O4)[C@H](C)O3)C(C)/C=C/C=C3\CO[C@@H]4[C@H](O)C(C)=C[C@@H](C(=O)O1)[C@]34O)O2` (stereo partly drawn) [Compound 2.8, 4″-epi-O-(2-methoxyethoxymethyl)-Avermectin B1], the inhibition at 12.5 ppm with Plutella xylostella is greater than 80%.

For the molecule `CCC(C)[C@H]1O[C@]2(C=C[C@@H]1C)C[C@@H]1C[C@@H](C/C=C(\C)[C@@H](OC3C[C@H](OC)[C@@H](OCOCCN)[C@H](C)O3)C(C)/C=C/C=C3\CO[C@@H]4[C@H](O)C(C)=C[C@@H](C(=O)O1)[C@]34O)O2` (stereo partly drawn) [Compound 3.19], the inhibition at 12.5 ppm in the assay on Spodoptera littoralis and in the assay with Tetranychus urticae was greater than 80% in each case.
